Test results taken from patent publication US20260234187A1, “ANTIMICROBIAL PEPTIDES” (MATERIAS S.R.L., priority 2020, published 2026).
Like-named read-outs stand apart in the source and are kept apart here. Where no end group is shown, it is not given here.

What was measured:
[1] = format: physicochemical
Experimental: The structural and conformational characterization of the RiLK1 peptide was assessed by investigating its secondary structure by ^1H NMR spectroscopy in H2O and in a micellar solution of SDS at a concentration of 150 mM to mimic the condition of the bacterial cell membrane.
In fact, the representative structures of the RiLK1 peptide in water show a random orientation of both polar and hydrophobic amino acid side chains.
The helical structure appears well defined and stabilized by hydrophobic interactions of amino acid residues located on the opposite face. It is important to note that, in this arrangement, all the charged side chains are iso-oriented and well prone to interact with the negatively charged surface of the SDS micelles. Furthermore, the two tryptophan residues within the RiLK1 sequence are located at an optimal distance for their mutual stacking, thus contributing to the stabilization of the helix. It should be pointed out that the ^1H NMR spectra of the peptide IDR-1018-K6 (described in patent application WO2019012158) could not be acquired in the presence of micellar solutions of SDS since it is not soluble at the concentrations required to carry out these assays. […] Therefore, it is possible to assert that the NMR analysis in the presence of SDS has shown that the RiLK1 peptide of the present invention is capable of adopting the helix conformation, whereas the IDR-1018-K6 peptide (object of patent WO2019012158) has poor solubility and a heterogeneous system not suitable for NMR structural characterization (Table 2).

[2] = system: S. typhimurium; format: cell-based, Salmonella typhimurium; conditions: S. typhimurium
Experimental: The evaluation of the Minimum Bactericidal Concentration (MBC), i.e., the lowest concentration of antimicrobial agent capable of 99.9% inhibition of bacterial growth on plates, was carried out as described in Bílikova et al, (2015, Peptides 68:190-196). […] It should be noted that the peptide object of the present invention is more powerful and efficient than the peptide IDR-1018-K6 (described in patent application WO2019012158) against the pathogenic bacteria L. monocytogenes and S. typhimurium, with bactericidal concentration values 4-fold and 7-fold lower, respectively, compared to those shown by IDR-1018-K6.

[3] = system: Aspergillus brasiliensis (ATCC 9341); test: antifungal activity, plate count, MFC; format: cell-based; conditions: A. brasiliensis; 25 μM, 6 h
Experimental: The antifungal activity of the RiLK1 peptide was determined against Aspergillus brasiliensis. For this purpose, a stock culture was prepared in which 10^5 CFUs of A. brasiliensis were inoculated in 10 ml of buffered peptone water. A reference strain (ATCC 9341) was used for this fungal species. The culture was incubated for 6 h at 37° C. with the RiLK1 peptide at 25 μM concentrations. At the same time, control samples were incubated without adding the peptide. 100 μl of the samples thus prepared were seeded on DG18 plates (Dichloran 18% Glycerol Agar-ISO 21527-2) and incubated at 25° C. for 7 days. All experimental conditions investigated used the plate count method to estimate the fungicidal activity of the peptide. Specifically, the numbers of colonies grown on agar plates seeded with the fungal suspensions in the absence or presence of the individual peptide dilutions were counted and compared. The standard deviations of the triplicate incubations of each plate were determined using statistical software. The evaluation of the Minimum Fungicidal Concentration (MFC), i.e., the lowest concentration of antifungal agent capable of 99.9% inhibition of fungal growth on plates, was carried out as described in Bílikova et al, (2015, Peptides 68:190-196).

[4] = format: physicochemical; conditions: Tris HCL pH 7, 3 mM SDS
Experimental: 0.1 g/L of RiLK1 peptide was dissolved in 10 mM Tris HCL at pH 7 and 3 mM SDS. The prepared samples were incubated for 24 hours at 4° C. or 25° C. and analysed at time zero and after 24 hours.

Substance: RLKWVRIWRR-NH2 [RiLK1, RLKWVRIWRR]
- solubility [1]: 1000 µM
- solubility ([1]; pH 4.4): 900 µM
- bactericidal concentration lower compared to IDR-1018-K6 [2]: 7 fold
- Drop Log CFU/ml [3]: 5 Log CFU/ml
- post-treatment decrease in the fungal load [3]: 5 Log
- Random (Bestsel) ([4]; 4° C., t = 24 hours): 47.5%
- Random (DichroWeb CONTIN-LL) ([4]; 4° C., t = 24 hours): 38%
- α-helix (Bestsel) ([4]; 4° C., t = 24 hours): 6.5%
- α-helix (DichroWeb CONTIN-LL) ([4]; 4° C., t = 24 hours): 25%
- β-sheet (Bestsel) ([4]; 4° C., t = 24 hours): 46%
- β-sheet (DichroWeb CONTIN-LL) ([4]; 4° C., t = 24 hours): 37%
- Random (Bestsel) ([4]; 25° C., t = 24 hours): 43.6%
- Random (DichroWeb CONTIN-LL) ([4]; 25° C., t = 24 hours): 37%
- α-helix (Bestsel) ([4]; 25° C., t = 24 hours): 6.8%
- α-helix (DichroWeb CONTIN-LL) ([4]; 25° C., t = 24 hours): 24%
- β-sheet (Bestsel) ([4]; 25° C., t = 24 hours): 49.7%
- β-sheet (DichroWeb CONTIN-LL) ([4]; 25° C., t = 24 hours): 39%
- Random (Bestsel) ([4]; t = 0): 44.9%
- Random (DichroWeb CONTIN-LL) ([4]; t = 0): 36%
- α-helix (Bestsel) ([4]; t = 0): 17.9%
- α-helix (DichroWeb CONTIN-LL) ([4]; t = 0): 21%
- β-sheet (Bestsel) ([4]; t = 0): 37.1%
- β-sheet (DichroWeb CONTIN-LL) ([4]; t = 0): 43%
